From US9718828B2 (MERCK SHARP & DOHME CORP., priority 2011, dated 2017)
Where a name gives a salt, the structure may show the parent alone.

These compounds were tested against Btk enzyme (His-Btk) (Homo sapiens (Human), UniProt Q06187) (assay: Btk enzyme activity, IMAP fluorescence polarization assay (Assay Method A)). Settings: not given.
Chain of Btk enzyme (His-Btk) (Q06187 whole entry): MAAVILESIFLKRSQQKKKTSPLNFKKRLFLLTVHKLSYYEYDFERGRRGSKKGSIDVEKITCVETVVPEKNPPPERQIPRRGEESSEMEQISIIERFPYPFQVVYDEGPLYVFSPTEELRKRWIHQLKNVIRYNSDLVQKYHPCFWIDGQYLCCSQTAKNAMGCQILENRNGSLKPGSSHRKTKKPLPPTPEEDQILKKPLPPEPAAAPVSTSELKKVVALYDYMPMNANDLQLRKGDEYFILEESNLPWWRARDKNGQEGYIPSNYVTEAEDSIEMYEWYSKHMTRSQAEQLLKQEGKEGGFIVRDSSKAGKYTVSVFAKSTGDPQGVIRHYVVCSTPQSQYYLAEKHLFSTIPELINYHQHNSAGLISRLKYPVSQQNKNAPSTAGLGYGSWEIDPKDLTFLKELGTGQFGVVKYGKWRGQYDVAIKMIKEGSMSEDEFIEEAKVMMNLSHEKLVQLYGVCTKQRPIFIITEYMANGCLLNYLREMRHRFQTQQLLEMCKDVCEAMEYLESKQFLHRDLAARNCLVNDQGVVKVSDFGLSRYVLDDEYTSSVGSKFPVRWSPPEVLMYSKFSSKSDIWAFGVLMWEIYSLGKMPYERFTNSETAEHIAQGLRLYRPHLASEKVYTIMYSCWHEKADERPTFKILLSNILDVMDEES

Row | EC50 [nM] | Compound
1 | < 10 | Nc1nccn2c([C@@H]3CCCN(C(=O)C4CC4)C3)nc(-c3ccc(C(=O)Nc4ccccn4)cc3)c12 [Example 52, (R)-4-(8-amino-3-(1-(cyclopropanecarbonyl)piperidin-3-yl)imidazo[1,5-a]pyrazin-1-yl)-N-(pyridin-2-yl)benzamide]
2 | 100 to 1000 | CCN(CC)c1nc(-c2ccc(C(=O)Nc3ccccn3)cc2)c2c(N)nccn12 [Example 213, 4-(8-amino-3-(diethylamino)imidazo[1,5-a]pyrazin-1-yl)-N-(pyridin-2-yl)benzamide]
3 | 10 to 100 | Cc1ccc(NC(=O)C(=O)N2CCC[C@@H](c3nc(-c4ccc(C(=O)Nc5cc(C6CC6)ccn5)cc4)c4c(N)nccn34)C2)cc1C [Example 113, (R)-4-(8-amino-3-(1-(2-(3,4-dimethylphenylamino)-2-oxoacetyl)piperidin-3 yl)imidazo[1,5-a]pyrazin-1-yl)-N-(4-cyclopropylpyridin-2-yl)benzamide]
4 | 100 to 1000 | COCCC(=O)N1CCC[C@@H](c2nc(-c3ccc(C(=O)Nc4ccccn4)cn3)c3c(N)nccn23)C1 [Example 288, (R)-6-(8-amino-3-(1-(3-methoxypropanoyl)piperidin-3-yl)imidazo[1,5-a]pyrazin-1-yl)-N-(pyridin-2-yl) nicotinamide]
5 | < 10 | CC(C)(C#N)C(=O)N[C@@H]1CCC[C@@H](c2nc(-c3ccc(C(=O)Nc4cc(C(F)(F)F)ccn4)cc3)c3c(N)nccn23)C1 (relative stereo) [Example 162, 4-(8-amino-3-((trans)-3-(2-cyano-2-methylpropanamido)-cyclohexyl)imidazo[1,5-a]pyrazin-1-yl)-N-(4-(trifluoromethyl)pyridin-2-yl)benzamide]

Second part, the compound before the results:

Row | Compound | EC50 [nM]
6 | Nc1nccn2c([C@@H]3CCCN(C(=O)C(F)(F)F)C3)nc(-c3ccc(C(=O)Nc4cc(C(F)(F)F)ccn4)cc3)c12 [Example 72, (R)-4-(8-amino-3-(1-(2,2,2-trifluoroacetyl)piperidin-3-yl)imidazo[1,5-a]pyrazin-1-yl)-N-(4-(trifluoromethyl)pyridin-2-yl)benzamide] | < 10
7 | CC1(C(=O)N2CCC[C@@H](c3nc(-c4ccc(C(=O)Nc5cnccn5)cc4)c4c(N)nccn34)C2)COC1 [Example 290, (R)-4-(8-amino-3-(1-(3-methyloxetane-3-carbonyl)piperidin-3-yl)imidazo[1,5-a]pyrazin-1-yl)-N-(pyrazin-2-yl)benzamide] | 10 to 100
8 | Cc1nc(-c2ccc(C(=O)Nc3cc(C(F)(F)F)ccn3)cc2)c2c(N)ncc(C(=O)NCc3cnco3)n12 [Example 297, 8-amino-3-methyl-N-(oxazol-5-ylmethyl)-1-(4-(4-(trifluoromethyl)pyridin-2-ylcarbamoyl)phenyl)imidazo[1,5-a]pyrazine-5-carboxamide] | 100 to 1000
9 | CSCCC(=O)N1CCC[C@@H](c2nc(-c3ccc(C(=O)Nc4cc(C(F)(F)F)ccn4)cc3)c3c(N)nccn23)C1 [Example 69, (R)-4-(8-amino-3-(1-(3-(methylthio)propanoyl)piperidin-3-yl)imidazo[1,5-a]pyrazin-1 yl)-N-(4-(trifluoromethyl)pyridin-2-yl)benzamide] | < 10
10 | CN(C)C1(C(=O)N2CCC[C@@H](c3nc(-c4ccc(C(=O)Nc5cc(C(F)(F)F)ccn5)cc4)c4c(N)nccn34)C2)CCC1 [Example 79, (R)-4-(8-amino-3-(1-(1-(dimethylamino)cyclobutane-carbonyl)piperidin-3-yl)imidazo[1,5-a]pyrazin-1-yl)-N-(4-(trifluoromethyl)pyridin-2-yl)benzamide] | 10 to 100

Same assay, conditions: read-out: EC50 Btk activity values - Assay Method A

Row | Compound | EC50 [nM]
11 | Nc1ncc(Cl)n2c([C@@H]3CCCNC3)nc(-c3ccc(C(=O)Nc4cc(C(F)(F)F)ccn4)cc3)c12 [Example 307] | < 10

Same assay, conditions: read-out: EC50 Btk activity values - Assay Method A; IMAP-FP, 60 min pre-incubation, 5 μM ATP; class 100-1000 is given as ≧100 nM-<1 μM

Row | EC50 [nM] | Compound
12 | < 10 | CC1(C(=O)N2CCC[C@@H](c3nc(-c4ccc(C(=O)Nc5cc(C(F)(F)F)ccn5)cc4)c4c(N)ncc(CCc5ccccc5)n34)C2)COC1 [Example 319, (R)-4-(8-amino-3-(1-(3-methyloxetane-3-carbonyl)piperidin-3-yl)-5-phenethylimidazo[1,5-a]pyrazin-1-yl)-N-(4-(trifluoromethyl)pyridin-2-yl)benzamide]
13 | < 10 | Nc1nccn2c([C@@H]3CCC[C@H](NC(=O)C4CC4)C3)nc(-c3ccc(C(=O)Nc4cc(C(F)(F)F)ccn4)cc3)c12 (relative stereo) [Example 156, 4-(8-amino-3-((cis)-3-(cyclopropanecarboxamido)cyclohexyl)imidazo[1,5-a]pyrazin-1-yl)-N-(4-(trifluoromethyl)pyridin-2-yl)benzamide]
14 | < 10 | C[C@H]1CC[C@@H](c2nc(-c3ccc(C(=O)Nc4cc(C(F)(F)F)ccn4)cc3)c3c(N)nccn23)CN1C(=O)C1CCC1(F)F (relative stereo) [Example 190, 4-(8-amino-3-((cis)-1-(2,2-difluorocyclobutanecarbonyl)-6-methylpiperidin-3-yl)imidazo[1,5-a]pyrazin-1-yl)-N-(4-(trifluoromethyl)pyridin-2-yl)benzamide, TFA salt]
15 | < 10 | CCc1ccnc(NC(=O)c2ccc(-c3nc([C@H]4CC[C@H](O)CC4)n4ccnc(N)c34)cc2)c1 [Example 19, 4-(8-amino-3-((trans)-4-hydroxycyclohexyl)imidazo[1,5-a]pyrazin-1-yl)-N-(4-ethylpyridin-2-yl)benzamide]
16 | < 10 | N#Cc1ccc(C(=O)N2CCC[C@@H](c3nc(-c4ccc(C(=O)Nc5cc(C6CC6)ccn5)cc4)c4c(N)nccn34)C2)cn1 [Example 117, (R)-4-(8-amino-3-(1-(6-cyanonicotinoyl)piperidin-3-yl)imidazo[1,5-a]pyrazin-1-yl)-N-(4-cyclopropylpyridin-2-yl)benzamide .]
17 | < 10 | CCCc1ccnc(NC(=O)c2ccc(-c3nc([C@H]4[C@@H]5COC[C@@H]54)n4ccnc(N)c34)cc2)c1 [Example 30, 4-(8-amino-3-((1R,5S,6S)-3-oxabicyc1o[3.1.0]hexan-6-yl)imidazo[1,5-a]pyrazin-1-yl)-N-(4-propylpyridin-2-yl)benzamide, TFA salt]

Second part, the compound before the results:

Row | Compound | EC50 [nM]
18 | CC1(C(=O)N2CCC[C@@H](c3nc(-c4ccc(C(=O)Nc5cc(C(F)(F)F)ccn5)cc4)c4c(N)ncnn34)C2)COC1 [Example 261, (R)-4-(4-amino-7-(1-(3-methyloxetane-3-carbonyl)piperidin-3-yl)imidazo[1,5-f][1,2,4]triazin-5-yl)-N-(4-(trifluoromethyl)pyridin-2-yl)benzamide] | < 10
19 | CSCCC(=O)N1C[C@H](c2nc(-c3ccc(C(=O)Nc4cc(C5CC5)ccn4)cc3)c3c(N)nccn23)CC[C@@H]1C (relative stereo) [Example 198, 4-(8-amino-3-((cis)-6-methyl-1-(3-(methylthio)propanoyl)-piperidin-3-yl)imidazo[1,5-a]pyrazin-1-yl)-N-(4-cyclopropylpyridin-2-yl)benzamide, TFA salt] | < 10
20 | Nc1nccn2c(N3CCCC(C(=O)N4CCCC(F)(F)C4)C3)nc(-c3ccc(C(=O)Nc4cc(C(F)(F)F)ccn4)cc3)c12 (centres unmarked) [Example 243, 4-(8-amino-3-(3-(3,3-difluoropiperidine-1-carbonyl)piperidin-1-yl)imidazo[1,5-a]pyrazin-1-yl)-N-(4-(trifluoromethyl)pyridin-2-yl)benzamide, TFA salt] | < 10
